Some test systems named below: MALME-3M melanoma; UACC-62 melanoma; NCI-H522 lung; HS 578T breast; K-562 leukemia; SNB-75 CNS; 786-0 renal; SNB-19 CNS; SR leukemia; OVCAR-4 ovarian.
Holding throughout (assay): growth of human tumour cells (NCI), 48 h

Molecules are shown by their SMILES.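 All cell lines were grown in 96-well plates and treated with compound for 48 hours. GI50: concentration for 50% inhibition of growth. TGI marks complete inhibition of growth.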

As to `CC[C@@]1(OC(=O)CN)C(=O)OCc2c1cc1n(c2=O)Cc2cc3cc4c(cc3nc2-1)OCO4`, the GI50 in the assay with MALME-3M melanoma was under 0.01 µM; with UACC-62 melanoma it was under 10 nM; in the assay with NCI-H522 lung, under 0.01 µM; with HS 578T breast, 399 nM; in the assay on K-562 leukemia, under 10 nM; in the assay with SNB-75 CNS it was under 0.01 µM. Also, the GI50 was under 10 nM with 786-0 renal, under 0.01 µM in the assay with SNB-19 CNS, under 10 nM in the assay on SR leukemia and 98.8 nM in the assay on OVCAR-4 ovarian. Besides, the TGI in the assay with MALME-3M melanoma was 0.459 µM; in the assay with UACC-62 melanoma it was 0.105 µM; in the assay on NCI-H522 lung it was 0.246 µM; in the assay on HS 578T breast, over 100 µM; with 786-0 renal, 0.0367 µM; with SNB-19 CNS it was 92.8 µM. The compound further yielded a TGI in the assay on OVCAR-4 ovarian of 0.826 µM.
With `O=C(/C=C/c1ccccc1)c1c[nH]c2ccccc2c1=O`, the GI50 was 8.81 µM with MALME-3M melanoma; 5090 nM with UACC-62 melanoma; 1.88 µM in the assay on NCI-H522 lung; 2320 nM in the assay on HS 578T breast; 2740 nM in the assay with K-562 leukemia; 3.1 µM in the assay with SNB-75 CNS. For the same compound, the GI50 in the assay with 786-0 renal is 4010 nM; with SNB-19 CNS it was 4.68 µM; with SR leukemia, 2620 nM; in the assay on OVCAR-4 ovarian, 4880 nM. Further, the TGI was 27.1 µM with MALME-3M melanoma; 18.2 µM in the assay on UACC-62 melanoma; 4.85 µM with NCI-H522 lung; 6.34 µM in the assay on HS 578T breast; 54.8 µM in the assay on K-562 leukemia; 12 µM with SNB-75 CNS. In addition, the TGI with 786-0 renal is 17.2 µM; in the assay on SNB-19 CNS it was 20.5 µM; in the assay with SR leukemia it was over 100 µM; in the assay on OVCAR-4 ovarian, 23.5 µM.
Regarding `Cc1cc(=O)oc2c(CN3CCCCC3)c(O)ccc12`, the TGI in the assay on MALME-3M melanoma, with UACC-62 melanoma, in the assay with NCI-H522 lung, in the assay with HS 578T breast, in the assay with K-562 leukemia and in the assay with SNB-75 CNS was over 100 µM in each case. Also, the TGI in the assay on 786-0 renal, in the assay with SNB-19 CNS, in the assay with SR leukemia and in the assay on OVCAR-4 ovarian was over 100 µM each time.
As to `Cn1cc(C2=C(c3c4n(c5ccccc35)CCCC4)C(=O)NC2=O)c2ccccc21`, the GI50 with MALME-3M melanoma is over 17.8 µM; in the assay with UACC-62 melanoma, 6320 nM; in the assay on NCI-H522 lung, 4.29 µM; with HS 578T breast, 5130 nM; with K-562 leukemia, 5320 nM; in the assay on SNB-75 CNS, 3.82 µM. In addition, the GI50 is over 17800 nM in the assay on 786-0 renal, 20.6 µM in the assay with SNB-19 CNS, 5920 nM with SR leukemia and over 16500 nM in the assay on OVCAR-4 ovarian. Further, the TGI with MALME-3M melanoma is over 25 µM; with UACC-62 melanoma, over 25 µM; in the assay on NCI-H522 lung it was over 16.3 µM; in the assay with HS 578T breast, over 25 µM; in the assay on K-562 leukemia, over 25 µM; with SNB-75 CNS, 19.3 µM. For the same compound, the TGI with 786-0 renal, in the assay on SNB-19 CNS, in the assay on SR leukemia and in the assay with OVCAR-4 ovarian was over 25 µM each time.
As for `CC(N=C(N)N)C(=O)O` (stereo unspecified), the TGI with MALME-3M melanoma, in the assay with UACC-62 melanoma, with NCI-H522 lung, in the assay with HS 578T breast, in the assay on K-562 leukemia and in the assay on SNB-75 CNS was over 100 µM each time. In addition, the TGI with 786-0 renal, in the assay with SNB-19 CNS, in the assay with SR leukemia and in the assay on OVCAR-4 ovarian was over 100 µM each time.
As for `COc1cc2ccccc2c2cc([N+](=O)[O-])oc12`, the TGI in the assay on MALME-3M melanoma was 0.418 µM; in the assay with UACC-62 melanoma it was 2.36 µM; in the assay with NCI-H522 lung it was 1.35 µM; in the assay on HS 578T breast, 10.1 µM; with K-562 leukemia, over 38.9 µM; in the assay on SNB-75 CNS, 6.9 µM. Besides, the TGI with 786-0 renal was 7.49 µM; in the assay with SNB-19 CNS, over 55.4 µM; with SR leukemia, 1.92 µM; in the assay with OVCAR-4 ovarian it was over 44 µM.
Take `COc1ccc(-c2nn(-c3ccc(NC(=O)c4ccc(Cl)c(C(F)(F)F)c4)cc3)cc2-c2ccncc2)cc1Cl`: the GI50 in the assay with MALME-3M melanoma is 1.11 µM; with UACC-62 melanoma, 1070 nM; in the assay with NCI-H522 lung, 4.03 µM; in the assay with HS 578T breast, 201 nM; in the assay on K-562 leukemia, 706 nM; with SNB-75 CNS, 0.287 µM. For the same compound, the GI50 with 786-0 renal was 187 nM; with SNB-19 CNS, 1.96 µM; with SR leukemia, 316 nM; in the assay with OVCAR-4 ovarian it was 2480 nM. Moreover, the TGI is 5.02 µM with UACC-62 melanoma; over 100 µM with NCI-H522 lung; 0.696 µM in the assay with HS 578T breast; over 100 µM in the assay with K-562 leukemia; 6.42 µM in the assay with SNB-75 CNS; 0.449 µM with 786-0 renal. The TGI with SNB-19 CNS, with SR leukemia and with OVCAR-4 ovarian was over 100 µM each time.
For `Cc1onc(-c2c(F)cccc2Cl)c1-c1ncc(-c2ccc(Cl)cc2)o1`, the GI50 was 6.43 µM in the assay on MALME-3M melanoma; 2700 nM in the assay with UACC-62 melanoma; 3.79 µM in the assay on NCI-H522 lung; 14100 nM with HS 578T breast; 4350 nM with K-562 leukemia; 12.1 µM in the assay with SNB-75 CNS. For the same compound, the GI50 was 5140 nM in the assay on 786-0 renal, 6.59 µM in the assay with SNB-19 CNS, 2920 nM in the assay on SR leukemia and 13900 nM in the assay with OVCAR-4 ovarian. Besides, the TGI in the assay on MALME-3M melanoma was over 100 µM; in the assay with UACC-62 melanoma it was over 100 µM; in the assay on NCI-H522 lung, over 100 µM; in the assay on HS 578T breast, over 100 µM; with K-562 leukemia it was over 100 µM; in the assay on SNB-75 CNS it was 77.6 µM. For the same compound, the TGI in the assay with 786-0 renal is over 100 µM; with SNB-19 CNS, over 100 µM; in the assay with SR leukemia, 31.3 µM; in the assay on OVCAR-4 ovarian, over 100 µM.
Regarding `COc1ccc(Cl)cc1Nc1nc(C(F)(F)F)ccc1C(=O)N/N=C/c1ccc([N+](=O)[O-])cc1`, the GI50 in the assay on MALME-3M melanoma was 2.3 µM; with UACC-62 melanoma it was 2170 nM; in the assay on NCI-H522 lung it was 1.62 µM; in the assay with HS 578T breast, 2570 nM; with K-562 leukemia it was 2950 nM; in the assay on SNB-75 CNS, 2.21 µM. For the same compound, the GI50 in the assay with 786-0 renal is 1920 nM; in the assay with SNB-19 CNS, 2.33 µM; with SR leukemia it was 1760 nM; in the assay on OVCAR-4 ovarian it was 979 nM. Further, the TGI is 5.59 µM in the assay with MALME-3M melanoma; 6.77 µM in the assay with UACC-62 melanoma; 4.77 µM in the assay with NCI-H522 lung; 62.9 µM with HS 578T breast; 12.6 µM in the assay on K-562 leukemia; 12.9 µM in the assay on SNB-75 CNS. In addition, the TGI was 9.27 µM with 786-0 renal, 13 µM with SNB-19 CNS, 4.95 µM with SR leukemia and 7.68 µM in the assay on OVCAR-4 ovarian.

The values above are taken from PubChem BioAssay (NCI).
